Assay [1] addresses T1, human recombinant GABAAR containing α5β3γ2 subunits (benzodiazepine site) (Homo sapiens, UniProt P18507+P31644).
T1 construct: expressed in transfected cells; host or cells: mouse L(tk−) cells, dexamethasone-inducible vector pMSGneo
As to the kind of experiment: In vitro radioligand binding assay (α5-GABAAR Ki). Particulars: inhibition of [3H]Ro15-1788 binding, membranes of L(tk−) cells expressing human α5β3γ2; read-out: α5-GABAAR Ki. An outline of the steps:
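Displacement of 4 nM [^3H]flumazenil from the benzodiazepine site, read by filtration and scintillation, gave IC50, converted to Ki (Cheng-Prusoff, saturation-derived Kd). Receptor: human α5β3γ2 membranes from L(tk^−) cells, 50 μg protein/well; 1 h, 4° C; TP003 1 μM defined nonspecific binding.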

Assay [2] addresses T2, human α5β3γ2 GABAARs in mouse L(tk−) cells (Homo sapiens, UniProt P18507+P31644).
T2 construct: expressed in transfected cells; host or cells: mouse L(tk−) cells, dexamethasone-inducible vector pMSGneo
As to the kind of experiment: In vitro electrophysiological recording assay (α5-GABAAR relative efficacy), QPatch. It counts as cell-based. The note with it: Conc 1 μM; GABA EC10-20. The method, boiled down: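 Whole-cell QPatch recordings at 20-22° C, −65 mV holding, in dexamethasone-induced (1 μM, 24 h) L(tk−) cells. Compound pre-applied ≥1 min, then co-applied with GABA EC10-20; percentage change in leak-corrected peak current, taken at ≥100× Ki, normalised to DMCM efficacy; 0.1% DMSO final.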
A general note: In patch-clamp work, channel activity is measured electrically.

In assay [3] the target is T3, human α5β3γ2L GABAA receptors in HEK293 cells (Homo sapiens, UniProt P18507+P31644).
T3 construct: expressed in transfected cells
As to the kind of experiment: In vitro electrophysiological recording assay (α5-GABAAR relative efficacy), SyncroPatch. It counts as cell-based. Particulars: GABA EC10-20. The text has this:
Mouse L(tk^−) cells stably expressing human α1β3γ2, α2β3γ2, α3β3γ2, α5β3γ2 GABAARs generated by transfection of the individual subunits in the dexamethasone-inducible expression vector pMSGneo in mouse L(tk^−) cells (Hadingham et al., 1993, Mol. Pharmacol. 43:970-975 and 1993, Mol. Pharmacol. 44:1211-1218) were used for binding and functional assays. For certain compounds, HEK293 cells stable expressing the human α1β3γ2L, α2β3γ2L, α3β3γ2L and α5β3γ2L GABAA receptors were used to evaluate their functional effects in a SyncroPatch electrophysiology assay.
The efficacy of modulators was evaluated using either the automated patch-clamp platform QPatch16 (Sophion, Copenhagen, Denmark) or the SyncroPatch 384i (Nanion Technologies, Germany). Cells were harvested from flasks by enzymatic dissociation and re-suspended in serum-free medium.
For the Syncropatch recordings, a stacked addition protocol was used, in which GABA was rapidly applied and then washed off from the cell. All experiments were carried out at room temperature (20-22° C.) using a standard whole cell procedure. The currents recorded were acquired at 2 kHz and filtered using a Bessel filter. Whole-cell currents were measured at a holding potential of −80 mV.
For Syncropatch recordings, the extracellular recording solution contained: 140 mM NaCl, 4 mM KCl, 2 mM CaCl2), 1 mM MgCl2, 10 mM HEPES, 5 mM glucose (pH 7.4 and osmolarity of c. 300-310 mOsm/L). The intracellular recording solution contained: 90 mM KCl, 50 mM KF, 1.5 mM MgCl2, 11.1 mM EGTA and 10 mM HEPES (pH 7.2 and osmolarity of c. 300 mOsm/L). 2 mM of NaATP was added to the intracellular solution on the day of testing.
The effects of modulators were evaluated in the presence of a submaximal GABA concentration, giving typically 10-20% activation (GABA EC10-20) of the response elicited by a saturating GABA concentration. For QPatch recordings, to check and ensure baseline current stability before compound addition, five consecutive applications of GABA EC10-20 alone (each application with a 2 s duration, separated by minimum 1 min wash off periods) were performed before compound addition. The test compound was applied using the pipetting system of the QPatch system 1 min at least prior to co-application with GABA EC10-20. For SyncroPatch recordings, GABA EC20 alone was applied three times (1 s long applications, with wash steps in-between) before compound addition. This was followed by a 1-2 min pre-incubation with the test compound and then re-application of GABA EC10-20 in the presence of the compound. Finally, following a further wash step, a saturating concentration of GABA was applied, allowing the accurate evaluation for each cell of the percentage baseline activation elicited by the submaximal GABA applied.
The compounds were first dissolved in DMSO as a 10 mM stock and then further diluted to the testing concentrations so that the final DMSO concentration in the extracellular recording solution was kept constant at 0.1% for the QPatch recordings, or 0.2% for the SyncroPatch recordings.
The % efficacy of modulators was determined from the GABA elicited currents recorded in the presence and absence of the test compound, using the formula:
[((compound peak current−leak)−(GABA peak current−leak))/(GABA peak current−leak)]*100,
where ‘leak’ is the leak baseline current at −65 mV, ‘compound peak current’ is the current elicited by co-application of compound and GABA, and ‘GABA peak current’ is the current elicited by GABA alone during the 5th GABA application. The results were presented as ‘relative efficacy’ for each compound generally at a concentration equal or higher than 100 times their determined Ki. The relative efficacy of a compound was calculated by normalising its efficacy to the efficacy of methyl-6,7-dimethoxy-4-ethyl-beta-carboline-3-carboxylate (DMCM) that was separately determined produced an attenuation of GABA-induced currents of −57±4%, n=5.

The values below come from patent US20240425491A1, “HETEROARYL COMPOUNDS USEFUL IN THE TREATMENT OF COGNITIVE DISORDERS” (University College Cardiff Consultants Limited, priority 2021, published 2024).

T3 sequence (P31644 32-462): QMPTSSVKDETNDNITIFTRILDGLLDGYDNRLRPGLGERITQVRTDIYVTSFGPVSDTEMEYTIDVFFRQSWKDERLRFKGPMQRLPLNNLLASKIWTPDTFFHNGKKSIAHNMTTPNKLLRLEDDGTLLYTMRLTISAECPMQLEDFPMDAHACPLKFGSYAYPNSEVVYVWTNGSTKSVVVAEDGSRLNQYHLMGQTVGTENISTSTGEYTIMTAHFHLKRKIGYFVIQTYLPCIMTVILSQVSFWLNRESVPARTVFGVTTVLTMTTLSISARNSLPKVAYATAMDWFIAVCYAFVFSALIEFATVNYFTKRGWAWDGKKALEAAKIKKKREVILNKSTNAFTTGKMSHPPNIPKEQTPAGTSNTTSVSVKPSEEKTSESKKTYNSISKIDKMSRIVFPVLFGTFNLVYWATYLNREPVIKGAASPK
T3 sequence (P28472 26-473 partner): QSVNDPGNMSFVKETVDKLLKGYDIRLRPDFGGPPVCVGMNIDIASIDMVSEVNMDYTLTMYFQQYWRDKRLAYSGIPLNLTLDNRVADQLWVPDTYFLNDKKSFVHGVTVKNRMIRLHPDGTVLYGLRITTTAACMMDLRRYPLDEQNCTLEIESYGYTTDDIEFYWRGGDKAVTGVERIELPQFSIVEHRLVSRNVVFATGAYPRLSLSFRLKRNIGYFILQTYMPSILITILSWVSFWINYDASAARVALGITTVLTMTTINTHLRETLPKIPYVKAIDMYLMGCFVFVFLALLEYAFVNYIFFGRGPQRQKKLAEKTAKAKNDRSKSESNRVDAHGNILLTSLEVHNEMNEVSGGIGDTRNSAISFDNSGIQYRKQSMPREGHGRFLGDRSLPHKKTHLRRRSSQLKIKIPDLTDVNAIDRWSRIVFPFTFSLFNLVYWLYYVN
T3 sequence (P18507 40-475): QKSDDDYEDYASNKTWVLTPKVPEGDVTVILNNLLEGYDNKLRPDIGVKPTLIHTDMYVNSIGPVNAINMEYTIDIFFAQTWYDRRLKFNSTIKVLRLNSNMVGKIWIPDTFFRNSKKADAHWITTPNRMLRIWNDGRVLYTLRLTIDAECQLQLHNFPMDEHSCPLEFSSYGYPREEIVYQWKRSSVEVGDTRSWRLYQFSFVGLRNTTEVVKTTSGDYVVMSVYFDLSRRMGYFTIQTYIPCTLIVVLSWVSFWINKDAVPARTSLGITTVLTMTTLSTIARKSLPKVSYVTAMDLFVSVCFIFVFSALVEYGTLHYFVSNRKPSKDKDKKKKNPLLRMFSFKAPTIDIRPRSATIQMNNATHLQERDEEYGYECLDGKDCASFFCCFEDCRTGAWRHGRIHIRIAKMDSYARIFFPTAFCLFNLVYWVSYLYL
T1 sequence (P31644 32-462): as the sequence (P31644 32-462) above
T1 sequence (P28472 26-473 partner): as the sequence (P28472 26-473 partner) above
T1 sequence (P18507 40-475): as the sequence (P18507 40-475) above
T2 sequence (P31644 32-462): as the sequence (P31644 32-462) above
T2 sequence (P28472 26-473 partner): as the sequence (P28472 26-473 partner) above
T2 sequence (P18507 40-475): as the sequence (P18507 40-475) above

What is called Ki is the dissociation constant of the complex between target and ligand, obtained from inhibition or displacement. Regarding `COc1nc(-c2cnn(C)c2)ccc1NC(=O)c1c(-c2ccccc2)noc1C` [Example 4, N-[2-Methoxy-6-(1-methylpyrazol-4-yl)-3-pyridyl]-5-methyl-3-phenyl-isoxazole-4-carboxamide], in assay [1], the Ki worked out at 29.7 nM. Also, the “α5-GABAAR Relative Efficacy (to DMCM), Qpatch” value in assay [2] was −0.68. The “α5-GABAAR Relative Efficacy (to DMCM), SyncroPatch” value in assay [3] (Conc 0.1 μM) is reported as −0.36.
In the case of `COc1nc(-c2cnc(CN3CCOCC3)nc2)ccc1NC(=O)c1c(-c2ccccc2)noc1C` [Example 181, N-[2-Methoxy-6-[2-(morpholinomethyl)pyrimidin-5-yl]-3-pyridyl]-5-methyl-3-phenyl-isoxazole-4-carboxamide], in assay [1], the Ki is 1.9 nM. In addition, the “α5-GABAAR Relative Efficacy (to DMCM), SyncroPatch” value in assay [3] (Conc 0.1 μM) is reported as −1.05.
With `Cc1onc(-c2ccc(F)cc2)c1C(=O)Nc1ccc(-c2cnc3n2CCN(C)C3)nc1OC(C)C.Cl` [Example 209, 3-(4-Fluorophenyl)-N-(2-isopropoxy-6-(7-methyl-5,6,7,8-tetrahydroimidazo[1,2-a]pyrazin-3-yl)pyridin-3-yl)-5-methylisoxazole-4-carboxamide hydrochloride], the Ki in assay [1] turned out to be 0.3 nM. For the same molecule, in assay [3] (Conc 0.1 μM), the “α5-GABAAR Relative Efficacy (to DMCM), SyncroPatch” value was −0.60.
Taken in the same sequence, the figures for `COc1nc(-c2cnc(N)nc2)ccc1NC(=O)c1c(-c2ccc(F)cc2)noc1C` [Example 213, N-[6-(2-Aminopyrimidin-5-yl)-2-methoxy-3-pyridyl]-3-(4-fluorophenyl)-5-methyl-isoxazole-4-carboxamide] were 0.4 nM and −0.85.
Regarding `Cc1onc(-c2ccccc2)c1C(=O)Nc1ccc(-c2cnc(N)nc2)nc1OC(C)C` [Example 214, N-[6-(2-Aminopyrimidin-5-yl)-2-isopropoxy-3-pyridyl]-5-methyl-3-phenyl-isoxazole-4-carboxamide], the Ki in assay [1] was determined as 0.4 nM. Besides, the “α5-GABAAR Relative Efficacy (to DMCM), SyncroPatch” value in assay [3] (Conc 0.1 μM) is listed as −0.81.
`Cc1onc(-c2ccccc2)c1C(=O)Nc1ccc(-c2ccc(N)nc2)nc1OC(C)C` [Example 215, N-[6-(6-Amino-3-pyridyl)-2-isopropoxy-3-pyridyl]-5-methyl-3-phenyl-isoxazole-4-carboxamide]: the inhibition constant (Ki) in assay [1] worked out at 0.6 nM. Moreover, in assay [3] (Conc 0.1 μM), the “α5-GABAAR Relative Efficacy (to DMCM), SyncroPatch” value is reported as −0.65.
As for `Cc1onc(-c2ccc(F)cc2)c1C(=O)Nc1ccc(-c2cnc(N)nc2)nc1OC1COC1` [Example 216, N-[6-(2-Aminopyrimidin-5-yl)-2-(oxetan-3-yloxy)-3-pyridyl]-3-(4-fluorophenyl)-5-methyl-isoxazole-4-carboxamide], the Ki in assay [1] was 1.5 nM. For the same molecule, the “α5-GABAAR Relative Efficacy (to DMCM), SyncroPatch” value in assay [3] (Conc 0.1 μM) was −0.67.
With `COCCOc1nc(-c2cnc(N)nc2)ccc1NC(=O)c1c(-c2ccc(F)cc2)noc1C` [Example 217, N-[6-(2-Aminopyrimidin-5-yl)-2-(2-methoxyethoxy)-3-pyridyl]-3-(4-fluorophenyl)-5-methyl-isoxazole-4-carboxamide], the Ki in assay [1] was 6.4 nM. In addition, in assay [3] (Conc 0.1 μM), the “α5-GABAAR Relative Efficacy (to DMCM), SyncroPatch” value was −0.16.
Take `Cc1onc(-c2ccc(F)cc2)c1C(=O)Nc1ccc(-c2cnc(N)nc2)nc1OCCO` [Example 218, N-[6-(2-Aminopyrimidin-5-yl)-2-(2-hydroxyethoxy)-3-pyridyl]-3-(4-fluorophenyl)-5-methyl-isoxazole-4-carboxamide]: the Ki in assay [1] amounted to 19.5 nM. Further, the “α5-GABAAR Relative Efficacy (to DMCM), SyncroPatch” value in assay [3] (Conc 0.1 μM) was −0.51.
Regarding `COc1nc(-c2ccc(CO)cc2)ccc1NC(=O)c1c(-c2ccccc2)noc1C` [Example 219, N-[6-[4-(hydroxymethyl)phenyl]-2-methoxy-3-pyridyl]-5-methyl-3-phenyl-isoxazole-4-carboxamide], the Ki in assay [1] is 4.4 nM. The “α5-GABAAR Relative Efficacy (to DMCM), SyncroPatch” value in assay [3] (Conc 0.03 μM) is reported as −0.45.
Turning to `COc1nc(-c2cnoc2)ccc1NC(=O)c1c(-c2ccc(F)cc2)noc1C` [Example 221, 3-(4-fluorophenyl)-N-(6-(isoxazol-4-yl)-2-methoxypyridin-3-yl)-5-methylisoxazole-4-carboxamide], the Ki in assay [1] came to 0.8 nM. For the same molecule, the “α5-GABAAR Relative Efficacy (to DMCM), SyncroPatch” value in assay [3] (Conc 0.1 μM) is reported as −1.15.
As to `COc1nc(-c2ccc(N)nc2)ccc1NC(=O)c1c(-c2ccc(F)cc2)noc1C` [Example 222, N-(6′-amino-6-methoxy-[2,3′-bipyridin]-5-yl)-3-(4-fluorophenyl)-5-methylisoxazole-4-carboxamide], the inhibition constant Ki in assay [1] was 0.5 nM. Further, in assay [3] (Conc 0.1 μM), the “α5-GABAAR Relative Efficacy (to DMCM), SyncroPatch” value is reported as −0.78.
Take `COc1nc(-c2cnc(N)nc2)ncc1NC(=O)c1c(-c2ccccc2)noc1C` [Example 223, N-(2′-amino-4-methoxy-[2,5′-bipyrimidin]-5-yl)-5-methyl-3-phenylisoxazole-4-carboxamide]: the inhibitory constant (Ki) in assay [1] amounted to 1.3 nM. The “α5-GABAAR Relative Efficacy (to DMCM), SyncroPatch” value in assay [3] (Conc 0.1 μM) is listed as −1.06.
Regarding `COc1nc(-c2ccc(CN3CC4COCC(C4)C3)cc2)ccc1NC(=O)c1c(-c2ccccc2)noc1C` [Example 228, N-[2-methoxy-6-[4-(3-oxa-7-azabicyclo[3.3.1]nonan-7-ylmethyl)phenyl]-3-pyridyl]-5-methyl-3-phenyl-isoxazole-4-carboxamide], the Ki in assay [1] was determined as 1.3 nM. For the same molecule, the “α5-GABAAR Relative Efficacy (to DMCM), SyncroPatch” value in assay [3] (Conc 0.1 μM) was −0.68.
`COc1nc(-c2cnoc2)ncc1NC(=O)c1c(-c2ccccc2)noc1C` [Example 229, N-(2-isoxazol-4-yl-4-methoxy-pyrimidin-5-yl)-5-methyl-3-phenyl-isoxazole-4-carboxamide]: the Ki in assay [1] worked out at 87.4 nM. In addition, in assay [3] (Conc 0.1 μM), the “α5-GABAAR Relative Efficacy (to DMCM), SyncroPatch” value is on record as −0.79.
For `COc1nc(-c2ccc(CN3CCOCC3)nc2)ccc1NC(=O)c1c(-c2ccccc2)noc1C` [Example 230, N-(6-methoxy-6′-(morpholinomethyl)-[2,3′-bipyridin]-5-yl)-5-methyl-3-phenyl-isoxazole-4-carboxamide], the inhibition constant Ki in assay [1] stood at 1.4 nM. In assay [3] (Conc 0.1 μM), the “α5-GABAAR Relative Efficacy (to DMCM), SyncroPatch” value is reported as −1.10.
For the molecule `COc1nc(-c2ccc(CN3CC4(COC4)C3)nc2)ccc1NC(=O)c1c(-c2ccccc2)noc1C` [Example 231, N-(6′-((2-oxa-6-azaspiro[3.3]heptan-6-yl)methyl)-6-methoxy-[2,3′-bipyridin]-5-yl)-5-methyl-3-phenylisoxazole-4-carboxamide], in assay [1], the Ki amounted to 1.3 nM. Moreover, the “α5-GABAAR Relative Efficacy (to DMCM), SyncroPatch” value in assay [3] (Conc 0.1 μM) is on record as −1.00.
Consider `COc1nc(-c2ccc(CN3CC4COCC(C4)C3)nc2)ccc1NC(=O)c1c(-c2ccccc2)noc1C` [Example 232, N-(6′-((3-oxa-7-azabicyclo[3.3.1]nonan-7-yl)methyl)-6-methoxy-[2,3′-bipyridin]-5-yl)-5-methyl-3-phenylisoxazole-4-carboxamide], for which, in assay [1], the Ki was 0.6 nM. Besides, the “α5-GABAAR Relative Efficacy (to DMCM), SyncroPatch” value in assay [3] (Conc 0.1 μM) was −0.73.
